Patent publication US4418192A, “Anthracyclinone trisaccharide compounds” (priority 1981, dated 1983)
Converted amounts (≈) assume the structure as drawn. Read-outs that look alike come from different tables or passages of the source.

Experiments:
[1] = system: DNA synthesis in L 1210 cells; test: Inhibition of DNA synthesis in L 1210 cells (radioactive precursor incorporation); format: cell-based; conditions: Mus musculus
Description: (§1) For measurement of IC50 on the synthesis of nucleic acids, 5×10^5 L 1210 cells/ml were pre-cultured at 37° C. for 1-2 hours in RPMI 1640 medium containing 10% calf serum in a CO2 incubator. One of the anthracyclinone glycosides listed in Table 4 was added and incubated for a further 15 minutes. Then 0.05 μCi/ml of ^14 C-uridine or ^14 C-thymidine was added and incubated for a further 60 minutes. At the end of incorporation of the radioactive compound, 10% trichloroacetic acid was poured into the cell suspension for termination of the reaction as well as forced precipitation. The acid-insoluble fraction was collected, rinsed three times with 5% trichloroacetic acid and then dissolved in formic acid for measurement of radioactivity. Based on the radioactivities of the test and control runs, IC50 was calculated.

[2] = system: RNA synthesis in L 1210 cells; test: Inhibition of RNA synthesis in L 1210 cells (radioactive precursor incorporation); format: cell-based; conditions: Mus musculus
Description: as §1

L 1210 leukemia cells = test: Inhibition of growth of L 1210 leukemia cells in culture; format: cell-based; conditions: Mus musculus, L1210, 48 h, read-out: IC50 Cell growth
Description: L 1210 culture cells (5×10^4 cells/ml; final cell concentration) were inoculated to RPMI 1640 medium (Roswell Park Memorial Institute 1640 medium) containing 20% calf serum and then one of the anthracyclinone glycosides listed in Table 4 was added to make a final concentration of 0.1-5 μg/ml. After incubation at 37° C. for 2 days in a CO2 incubator, the number of cells was counted. Based on these counts, the 50% inhibitory concentration (IC50) of each test compound on the growth of L 1210 leukemia cells was calculated relative to the control test.

L 1210 leukemia = test: Antitumor activity: prolongation of survival time of CDF1 mice after intraperitoneal transplantation of L 1210 leukemia cells; format: in vivo; conditions: Mus musculus, L1210, ip, 720 h, read-out: Prolongation rate of the survival time (T/C)
Description: After intraperitoneal transplantation of L 1210 leukemia cells (1×10^5 cells/mouse), 0.25 ml/animal of solutions of one of the anthracyclinone glycosides (HCl salts) of the present invention in physiological saline was intraperitoneally injected to CDF1 mice every day for 9 days.

[3] = in words, cited from earlier work
[4] = L1210, L 1210 cells, 15 min pre-incubation, 60 min with radioactive precursor (^14 C-uridine or ^14 C-thymidine), read-out: IC50 DNA synthesis
[5] = L1210, L 1210 cells, 15 min pre-incubation, 60 min with radioactive precursor (^14 C-uridine or ^14 C-thymidine), read-out: IC50 RNA synthesis
[6] = L 1210 cells, RPMI 1640 with 20% calf serum, 37° C., 2 days
[7] = L1210, read-out: IC50 DNA synthesis
[8] = L1210, read-out: IC50 RNA synthesis

SMILES	IC50 [1, 4]	IC50 [2, 5]	IC50 (L 1210 leukemia cells; [6])	response vs control in vivo at 1.25 mg/kg (L 1210 leukemia)	response vs control in vivo at 2.5 mg/kg (L 1210 leukemia)	response vs control in vivo at 5 mg/kg (L 1210 leukemia)	other results
COc1cccc2c1C(=O)c1c(O)c3c(c(O)c1C2=O)C[C@@](O)(C(C)=O)C[C@@H]3O[C@H]1C[C@H](N)[C@H](O)[C@H](C)O1 [Daunomycin, reference compound]	0.3 µg/mL (≈ 0.569 µM)	0.18 µg/mL (≈ 0.341 µM)	0.036 µg/mL (≈ 0.0682 µM)	–	–	–	–
COc1cccc2c1C(=O)c1c(O)c3c(c(O)c1C2=O)C[C@@](O)(C(C)=O)C[C@@H]3O[C@H]1C[C@H](N(C)C)[C@H](O[C@H]2C[C@H](O)[C@H](O[C@H]3CCC(=O)[C@H](C)O3)[C@H](C)O2)[C@H](C)O1 [DMN--RDC]	0.17 µg/mL (≈ 0.213 µM)	0.017 µg/mL (≈ 0.0213 µM)	< 0.01 µg/mL	184%	187%	126%	response vs control in vivo at 0.32 mg/kg (L 1210 leukemia): 126%; response vs control in vivo at 0.63 mg/kg (L 1210 leukemia): 135%
COc1cccc2c1C(=O)c1c(O)c3c(c(O)c1C2=O)C[C@@](O)(C(C)=O)C[C@@H]3O[C@H]1C[C@H](N)[C@H](O[C@H]2C[C@H](O)[C@H](O[C@H]3CCC(=O)[C@H](C)O3)[C@H](C)O2)[C@H](C)O1 [DMN--DaDC]	1.15 µg/mL (≈ 1.49 µM)	0.165 µg/mL (≈ 0.214 µM)	0.09 µg/mL (≈ 0.117 µM)	–	–	–	–
COc1cccc2c1C(=O)c1c(O)c3c(c(O)c1C2=O)C[C@@](O)(C(=O)CO)C[C@@H]3O[C@H]1C[C@H](N(C)C)[C@H](O[C@H]2C[C@H](OC(C)=O)[C@H](O[C@H]3CCC(=O)[C@H](C)O3)[C@H](C)O2)[C@H](C)O1 [3"-O--acetyl AMN--RDC]	0.32 µg/mL (≈ 0.374 µM)	0.012 µg/mL (≈ 0.014 µM)	< 0.01 µg/mL	–	–	–	response vs control in vivo at 0.32 mg/kg (L 1210 leukemia; 0.32 mg/kg/day, i.p. every day for 9 days, HCl salts, L 1210 i.p. in CDF1 mice, control = 100): 144%; response vs control in vivo at 0.63 mg/kg (L 1210 leukemia; 0.63 mg/kg/day, i.p. every day for 9 days, HCl salts, L 1210 i.p. in CDF1 mice, control = 100): 165%; response vs control in vivo at 1.25 mg/kg (L 1210 leukemia; 1.25 mg/kg/day, i.p. every day for 9 days, HCl salts, L 1210 i.p. in CDF1 mice, control = 100): 140%; response vs control in vivo at 2.5 mg/kg (L 1210 leukemia; 2.5 mg/kg/day, i.p. every day for 9 days, HCl salts, L 1210 i.p. in CDF1 mice, control = 100): 96%
CC(=O)[C@]1(O)Cc2c(O)c3c(c(O)c2[C@@H](O[C@H]2C[C@H](N(C)C)[C@H](O[C@H]4C[C@H](O)[C@H](O[C@H]5CCC(=O)[C@H](C)O5)[C@H](C)O4)[C@H](C)O2)C1)C(=O)c1c(O)cccc1C3=O [CMN--RDC]	0.19 µg/mL (≈ 0.242 µM)	0.035 µg/mL (≈ 0.0447 µM)	< 0.01 µg/mL	132%	160%	180%	response vs control in vivo at 7.5 mg/kg (L 1210 leukemia): 145%
COc1cccc2c1C(=O)c1c(O)c3c(c(O)c1C2=O)C[C@@](O)(C(=O)CO)C[C@@H]3O[C@H]1C[C@H](N)[C@H](O)[C@H](C)O1 [Adriamycin, reference compound]	1.25 µg/mL (≈ 2.3 µM)	0.49 µg/mL (≈ 0.902 µM)	0.018 µg/mL (≈ 0.0331 µM)	–	–	–	side effects ([3]; clinical use as antitumor chemotherapeutics): often cause undesirable side effects
CN[C@H]1C[C@H](O[C@H]2C[C@](O)(C(C)=O)Cc3c(O)c4c(c(O)c32)C(=O)c2c(OC)cccc2C4=O)O[C@@H](C)[C@H]1O[C@H]1C[C@H](O)[C@H](O[C@H]2CCC(=O)[C@H](C)O2)[C@H](C)O1 [DMN--DmDC]	–	–	–	–	–	–	IC50 [1, 7]: 0.62 µg/mL (≈ 0.791 µM); IC50 [2, 8]: 0.065 µg/mL (≈ 0.0829 µM); IC50 (L 1210 leukemia cells): 0.023 µg/mL (≈ 0.0293 µM)
COc1cccc2c1C(=O)c1c(O)c3c(c(O)c1C2=O)C[C@@](O)(C(=O)CO)C[C@@H]3O[C@H]1C[C@H](N(C)C)[C@H](O[C@H]2C[C@H](O)[C@H](O[C@H]3CCC(=O)[C@H](C)O3)[C@H](C)O2)[C@H](C)O1 [AMN--RDC]	0.15 µg/mL (≈ 0.184 µM)	0.011 µg/mL (≈ 0.0135 µM)	< 0.01 µg/mL	158%	145%	130%	response vs control in vivo at 0.32 mg/kg (L 1210 leukemia): 114%; response vs control in vivo at 0.63 mg/kg (L 1210 leukemia): 142%
CC[C@@]1(O)C[C@H](O[C@H]2C[C@H](N(C)C)[C@H](O[C@H]3C[C@H](O)[C@H](O[C@H]4CCC(=O)[C@H](C)O4)[C@H](C)O3)[C@H](C)O2)c2c(cc3c(c2O)C(=O)c2c(O)cccc2C3=O)[C@H]1C(=O)OC [Aclacinomycin A, reference compound]	0.65 µg/mL (≈ 0.801 µM)	0.085 µg/mL (≈ 0.105 µM)	0.03 µg/mL (≈ 0.037 µM)	–	–	–	cardio-toxicity ([3]; U.S. Pat. No. 3,988,315 and Jap. P. No. 864,851): less cardio-toxic
COc1cccc2c1C(=O)c1c(O)c3c(c(O)c1C2=O)C[C@@](O)(C(=O)COC(=O)Cc1ccccc1)C[C@@H]3O[C@H]1C[C@H](N(C)C)[C@H](O[C@H]2C[C@H](OC(C)=O)[C@H](O[C@H]3CCC(=O)[C@H](C)O3)[C@H](C)O2)[C@H](C)O1 [14-O--phenylacetyl-3"-O--acetyl AMN--RDC]	4 µg/mL (≈ 4.11 µM)	0.15 µg/mL (≈ 0.154 µM)	0.03 µg/mL (≈ 0.0308 µM)	–	–	–	–
CC(=O)O[C@H]1C[C@H](O[C@@H]2[C@H](C)O[C@@H](O[C@H]3C[C@](O)(C(C)=O)Cc4c(O)c5c(c(O)c43)C(=O)c3c(O)cccc3C5=O)C[C@@H]2N(C)C)O[C@@H](C)[C@H]1O[C@H]1CCC(=O)[C@H](C)O1 [3"-O--acetyl CMN--RDC]	0.36 µg/mL (≈ 0.436 µM)	0.04 µg/mL (≈ 0.0484 µM)	< 0.01 µg/mL	124%	159%	208%	response vs control in vivo at 7.5 mg/kg (L 1210 leukemia): 214%; response vs control in vivo at 10 mg/kg (L 1210 leukemia): 165%
COc1cccc2c1C(=O)c1c(O)c3c(c(O)c1C2=O)C[C@@](O)(C(=O)COC(C)=O)C[C@@H]3O[C@H]1C[C@H](N(C)C)[C@H](O[C@H]2C[C@H](OC(C)=O)[C@H](O[C@H]3CCC(=O)[C@H](C)O3)[C@H](C)O2)[C@H](C)O1 [14,3"-O--diacetyl AMN--RDC]	–	–	–	–	–	–	IC50 [1, 7]: 0.5 µg/mL (≈ 0.557 µM); IC50 [2, 8]: 0.014 µg/mL (≈ 0.0156 µM); IC50 (L 1210 leukemia cells): < 0.01 µg/mL
COc1cccc2c1C(=O)c1c(O)c3c(c(O)c1C2=O)C[C@@](O)(C(C)=O)C[C@@H]3O[C@H]1C[C@H](N(C)C)[C@H](O[C@H]2C[C@H](O)[C@H](O)[C@H](C)O2)[C@H](C)O1 [DMN--RD]	0.28 µg/mL (≈ 0.408 µM)	0.04 µg/mL (≈ 0.0583 µM)	< 0.01 µg/mL	172%	165%	120%	response vs control in vivo at 0.32 mg/kg (L 1210 leukemia): 114%; response vs control in vivo at 0.63 mg/kg (L 1210 leukemia): 144%
CC[C@@]1(O)C[C@H](O[C@H]2C[C@H](N(C)C)[C@H](O[C@H]3C[C@H](OC(C)=O)[C@H](O[C@H]4CCC(=O)[C@H](C)O4)[C@H](C)O3)[C@H](C)O2)c2c(cc3c(c2O)C(=O)c2c(O)cccc2C3=O)[C@H]1C(=O)OC [3"-O--acetyl AKN--RDC]	–	–	–	–	114%	168%	IC50 [1, 7]: 1.3 µg/mL (≈ 1.52 µM); IC50 [2, 8]: 0.1 µg/mL (≈ 0.117 µM); IC50 (L 1210 leukemia cells): 0.06 µg/mL (≈ 0.0703 µM); response vs control in vivo at 7.5 mg/kg (L 1210 leukemia): 186%; response vs control in vivo at 10 mg/kg (L 1210 leukemia): 180%
COc1cccc2c1C(=O)c1c(O)c3c(c(O)c1C2=O)C[C@@](O)(C(C)=O)C[C@@H]3O[C@H]1C[C@H](N(C)C)[C@H](O[C@H]2C[C@H](OC(C)=O)[C@H](O[C@H]3CCC(=O)[C@H](C)O3)[C@H](C)O2)[C@H](C)O1 [3"-O--acetyl DMN--RDC]	0.3 µg/mL (≈ 0.357 µM)	0.02 µg/mL (≈ 0.0238 µM)	< 0.01 µg/mL	144%	180%	210%	response vs control in vivo at 0.63 mg/kg (L 1210 leukemia): 114%; response vs control in vivo at 7.5 mg/kg (L 1210 leukemia): 164%
